From publication PMC8118680 (Chemistry of Heterocyclic Compounds, 2021)

Legend:
[1] = system: influenza virus strain A/Puerto Rico/8/34 (H1N1); format: cell-based; conditions: result in words; for activity against influenza virus strain A/Puerto Rico/8/34 (H1N1): MDCK cells
MDCK cells = assay: Cytotoxicity in MDCK cells, MTT assay; format: cell-based; conditions: result in words

| Structure (SMILES) | activity against influenza virus strain A/Puerto Rico/8/34 (H1N1) [1] | SI relative to the reference drug rimantadine ([1]; influenza A H1N1 in MDCK cells) | cytotoxicity (MDCK cells) |
| --- | --- | --- | --- |
| O=C(Cn1nnc(-c2ccccc2)n1)NNc1ncccn1 [Compound 7a, N '-(Pyrimidin-2-yl)-2-(5-phenyl-2 H -tetrazol-2-yl)acetohydrazide] | did not show activity | – | – |
| Cc1cc(C)nc(NNC(=O)Cn2nnc(-c3ccccc3)n2)n1 [Compound 7b, N '-(4,6-Dimethylpyrimidin-2-yl)-2-(5-phenyl-2 H -tetrazol-2-yl)acetohydrazide] | did not show activity | – | – |
| Cc1cc(C)nc(Sc2nnnn2CC(=O)O)n1 [Compound 12b, {5-[(4,6-Dimethylpyrimidin-2-yl)sulfanyl]-1 H -tetrazol-1-yl}acetic acid] | – | twice | significantly lower cytotoxicity |
| c1ccc(-n2nnnc2Sc2ncccn2)cc1 [Compound 12a, 2-[(1-Phenyl-1 H -tetrazol-5-yl)sulfanyl]pyrimidine] | did not show activity | – | – |
